Results as given in paper PMC9297664, “Cationic peptide carriers enable long-term delivery of insulin-like growth factor-1 to suppress osteoarthritis-induced matrix degradation” (Arthritis Research & Therapy, 2022).
“Also recorded” adds a separate entry of the source.

Key:
[1] = test system: IL-1 and TNF-α challenged cartilage; conditions: cited from earlier work
Source text: Media was collected and changed every 2 days and IL-1α was replenished with each media change.

[2] = design: method as in 3 sources, ref 37 = [37]; PMID 24470361; doi:10.1002/art.38357; 37. Loffredo FS Pancoast JR Cai L Vannelli T Dong JZ Lee RT Targeted delivery to cartilage is critical for in vivo efficacy of insulin-like growth factor 1 in a rat model of osteoarthritis Arthritis R ||| ref 42 = [42]; PMID 20722014; doi:10.1002/art.27709; 42. Miller RE Grodzinsky AJ Cummings K Plaas AHK Cole AA Lee RT Intraarticular injection of heparin-binding insulin-like growth factor 1 sustains delivery of insulin-like growth factor 1 to cartilage ||| ref 43 = [43]; PMID 30487252; doi:10.1126/scitranslmed.aat8800; 43. Geiger BC Wang S Padera RF Grodzinsky AJ Hammond PT Cartilage-penetrating nanocarriers improve delivery and efficacy of growth factor treatment of osteoarthritis Sci Transl Med 2018 10 eaat8800 10; conditions: cited from earlier work; for Detection in cartilage samples: rat cartilage, 6 days post-IA injection
[3] = Depth of penetration, 1-D transport chamber, confocal imaging, absorption then desorption; type: in vitro ADME, bovine
Experimental: The chamber was placed in a covered petri dish with DI water inside an incubator at 37 °C under gentle shaking. After 24 h, a 100 μm slice was cut from the center of the explant and imaged using a confocal microscope (Zeiss LSM 800). Cy5 (red channel) was excited 640 nm laser and FITC (green channel) was excited using a 488 nm laser. Z-stacks of images from both channels were obtained and maximum intensity along the z-axis was projected. The intensity across the thickness to represent the penetration concentration profile was plotted along a straight line from the superficial to deep zone using FIJI.

[4] = test system: human OA cartilage explants; design: method as in PMID 18050312; conditions: cited from earlier work
[5] = test system: IL-1α treated cartilage explants; assay: Nitrite release from cartilage to medium (Griess assay); type: cell-based, bovine; conditions: IL-1α 2 ng/mL; for Nitrite production: days 2, 8 and 16
Experimental: (§1) Media was collected and changed every 2 days and IL-1α was replenished with each media change. […] IL-1α is chosen for this in-vitro post-traumatic (PTOA) model as it is elevated during the inflammatory phase following an injury and causes degradation of aggrecans, collagens, inhibits proteoglycan synthesis, and alters chondrocyte viability. 2 ng/mL concentration was chosen as it represents a moderately aggressive cytokine treatment.
Nitrite content was measured using the Griess assay as a marker of nitric oxide (NO) release from cartilage into the medium. Equal volumes of Griess reagent and culture media collected every two days were mixed and incubated at room temperature for 15 min, and absorbance at 540 nm was measured using a microplate reader (Synergy H1, Biotek). Sodium nitrite solution in DMEM was used as a standard to convert absorbance readings to nitrite content in the sample medium.

[6] = test system: chondrocytes in IL-1α treated cartilage explants; assay: Chondrocyte viability in cartilage (FDA/PI live-dead staining); type: cell-based, bovine; conditions: IL-1α 2 ng/mL, days 8 and 16
Experimental: as §1
On days 8 and 16 of culture, 100 μm thick slices were cut from the center of cartilage disks as described before. Cartilage slices were stained with FDA (4 mg/ml in PBS) and PI ([…] in PBS) for 5 min. FDA stained viable cells green and PI stained the non-viable cells red. Slices were washed with PBS and imaged using a fluorescence microscope (Nikon Eclipse TS2R) at 4× objective. The viable and non-viable cell images were overlaid using ImageJ.

endplate chondrocytes = conditions: IGF-1 administration; cited from earlier work
[7] = test system: IL-1α treated cartilage explants; assay: Cellular metabolism in cartilage explants (AlamarBlue); type: cell-based, bovine; conditions: IL-1α 2 ng/mL, days 8 and 16
Experimental: as §1
On days 8 and 16 of culture, cellular metabolism in cartilage explants was determined by measuring the metabolic oxidation activity by using AlamarBlue assay. Briefly, cartilage explants were individually incubated with media containing 1× resazurin sodium salt for 3 h in the dark at 37 °C and 5% CO2. Cell metabolic activity was estimated by measuring fluorescence at 530 nm excitation and 590 nm emission wavelengths using a microplate reader (Synergy H1, Biotek).

[8] = test system: IL-1α treated cartilage explants; assay: GAG loss from cartilage (DMMB), IL-1α-challenged explant culture post-traumatic OA model; type: cell-based, bovine; conditions: IL-1α 2 ng/mL
Experimental: as §1
After 16 days of culture, the cartilage explants were weighed and digested using Proteinase-K solution in Tris buffer at pH 8. The cumulative GAG released to the media and the residual GAG content in the digested tissue explants was measured using DMMB assay. The GAG content was expressed as a percentage of the total GAG content (in media + residual GAG in the digested explant).

rat knee joints = conditions: post-IA injection in ACL transected (ACLT) rat knee joints, compared to free IGF-1; cited from earlier work
Source text: The high negative FCD of cartilage resulting from the negatively charged GAGs provides a unique opportunity to make drug cartilage penetrating using cationic carriers.

[9] = single dose 1000 ng/ml IGF-1 (S), free or as conjugate

IGF-1: Human recombinant insulin-like growth factor-1, ~7.6 kDa pro-anabolic growth factor (PeproTech)
Saturating concentration for suppression of GAG loss ([1]; IL-1 and TNF-α challenged cartilage culture models, multiple dosing): 100 ng/mL
Concentration at which the therapeutic effect saturates (suppression of IL-1α-induced catabolic activity) ([1]; similar cartilage explant culture model): 100 ng/mL
Retention in cartilage / joint tissues ([2]; 24 h post-IA injection in rats): no free IGF-1 was detectable in any joint tissues
Retention in cartilage ([2]; 2 days post-IA injection in rat knees): no retention of free IGF-1 was observed in cartilage
Detection in cartilage samples [2]: no trace of free IGF-1 was detectable
Depth of penetration from superficial to deep zone [3]: penetrated through the full thickness of cartilage
Retention in cartilage after desorption [3]: most of the free IGF-1 desorbed out of the cartilage
Time for desorption out of the cartilage [3]: ≤ 24 h
Increase of proteoglycan synthesis ([4]; 3 ng/ml IGF-1, milder degree of OA explants (MANKIN score 4)): 1.8 fold
Enhancement of proteoglycan synthesis ([4]; 30 ng/ml IGF-1, advanced OA cartilage explants (MANKIN score 8)): 2.6 fold
Cumulative nitrite levels ([5]; continuous dose 100 ng/ml (C), 16 days): significantly suppressed the IL-1-induced cumulative nitrite levels
Nitrite production ([5]; single dose 100 ng/ml (S)): suppressed nitrite production only on day 2
Nitrite production [5, 9]: suppressed nitrite production only on day 2
Chondrocyte viability ([6]; continuous dose 100 ng/ml (C)): match the response from the untreated control condition
Chondrocyte viability ([6]; single dose 100 ng/ml (S)): not effective in rescuing chondrocyte metabolic activity or viability
Chondrocyte viability [6, 9]: failed to rescue the reduced cell metabolism and viability over the long-term; also recorded: not effective
Decrease of MMP-13 expression (endplate chondrocytes): 50%
Chondrocyte metabolic activity ([7]; continuous dose 100 ng/ml (C)): match the response from the untreated control condition
Chondrocyte metabolic activity ([7]; single dose 100 ng/ml (S)): not effective in rescuing chondrocyte metabolic activity or viability
Chondrocyte metabolic activity [7, 9]: failed to rescue the reduced cell metabolism and viability over the long-term; also recorded: ineffective in rescuing the reduced metabolic rate
GAG loss to media ([8]; continuous dose 100 ng/ml (C), replenished every 2 days, 16-day culture): keep the GAG loss levels down to control levels
GAG loss to media ([8]; single dose 100 ng/ml (S), first 2 days only, day 2): significantly inhibited GAG loss by day 2
Cumulative GAG loss to media ([8]; single dose 1000 ng/ml IGF-1 (S), free or as conjugate, 16-day culture): remained ineffective in providing a prolonged effect

PAMAM-IGF-1: IGF-1 carried by polyamidoamine (PAMAM) dendrimer cationic nanoparticles (Gen 6, 58 kDa) [reference compound]
Detection in cartilage samples [2]: detected
Duration of bioavailability of IGF-1 in the knee joint space ([2]; rat knee joint space post-IA injection): 30.4 days
Matrix degradation and osteophyte formation (rat knee joints): significantly suppressed matrix degradation and osteophyte formation
